Assays:
Acinetobacter baumanii = assay: Biocide kill of planktonic cells and biofilm on vascular catheter (serum flow model); assay type: cell-based; conditions: planktonic cells on vascular catheter, 5 to 60 minutes, FIG. 10A
From the text: (§1) A system as shown in FIG. 6 was used in this study. Serum and a biocide were placed in sealed bottles as the first fluid source 505 and the second fluid source 509, respectively. The fluid sources were connected to a pump 515 by conventional IV tubing. A second pump 531 was used to deliver the fluid mixture to the vascular catheter 3 positioned in the sampling apparatus 1.
Initially, only the first fluid source, serum inoculated with Acinetobacter baumanii (10×10^9 CFU/ml), was used to contaminate the catheter with planktonic cells. The inoculated fluid continuously flowed through IV tubing directly through the catheter for […] to form a layer of planktonic cells on the catheter. […] The segments were transferred to test tubes containing one ml saline and the adherent cells were dislodged by sonication in an aquasonic device, vortexed for about one minute, and then counted on Tropic soya Agar. The number of viable cells were determined for each catheter and were compared to the number of viable cells in control samples (i.e., biocide-free serum) to calculate the biocide concentration required to kill 50% of the bacteria in the biofilm at the same time interval. […] In addition to plating cells on agar and counting the number of colonies, the amount of biofilm formed can be determined by a semiquantitive microtiter plate method. […]

[1] = tested on: Stenotrophomonas maltophilia; assay: as above; assay type: cell-based; conditions: 5 to 60 minutes; for biofilm kill (biocide concentration required to kill 50% of bacteria that grew in the biofilm): biofilm on vascular catheter, FIG. 17B; for planktonic cell kill (biocide concentration required to kill 100% of bacteria present as planktonic cells): planktonic cells on vascular catheter, FIG. 17A
From the text: as §1
(§2) Initially, only the first fluid source, serum inoculated with Acinetobacter baumanii (10×10^9 CFU/ml), was used to contaminate the catheter with planktonic cells. The inoculated fluid continuously flowed through IV tubing directly through the catheter for […] to form a layer of planktonic cells on the catheter. Fluid flow was then stopped and the tubing was then reconfigured as shown in FIG. 6 so that the second fluid source could be introduced. In these test runs, the first fluid source was inoculated with the same concentration of bacteria, and the second fluid source was a biocide (16-16,000 ppm) selected from hydrogen peroxide (H2O2), sodium hypochlorite (SHC), peracetic acid (PAA) and gluteraldehyde (GLT). The fluid mixture continuously flowed through the catheter for 5, 10, 15, 30, 45 or 60 minutes before fluid flow was discontinued to determine bacterial resistance of the planktonic cells on the catheter. In all, six runs were completed for each of four different biocides. After each run, the test catheter was then cut aseptically into 1 cm segments. The segments were transferred to test tubes containing one ml saline and the adherent cells were dislodged by sonication in an aquasonic device, vortexed for about one minute, and then counted on Tropic soya Agar. The number of viable cells were determined for each catheter and were compared to the number of viable cells in control samples (i.e., biocide-free serum) to calculate the biocide concentration required to kill 50% of the bacteria in the biofilm at the same time interval. Instead of saline, other appropriate buffer solutions can be used. In addition to plating cells on agar and counting the number of colonies, the amount of biofilm formed can be determined by a semiquantitive microtiter plate method. For example, adherent cells can be dislodged from test catheters as described above. The aliquots of solutions containing the cells from each catheter piece can then be added separately to wells of a 96-well tissue culture plate and incubated at 37° C. for 24 h. After several (e.g., three) washes with PBS, any remaining biofilm is stained with safranin O dye for 1 min and washed with PBS again. Optical density at 492 nm is determined with a 96-well plate spectrometer reader. For each time point, an aliquot without biocide is a positive control. Percent inhibition of biofilm accumulation can be determined from the formula (A492positive−A492biocide)/(A492positive−A492)×100%, Such plating methods are well known to one skilled in the art and could be modified as desired for analysis of the biofilm.
(§3) For determination of the bacterial resistance of the biofilm formed on the catheter, the method described above was repeated using the same conditions except that the inoculated fluid continuously flowed through the catheter for two hours before fluid flow was discontinued to form a biofilm on the catheter.
The experiment was repeated as described above, except that Stenotrophomonas maltophilia (1×10^9 CFU/ml) was used to inoculate the serum.

Staphylococcus epidermis = assay: as above; assay type: cell-based; conditions: 5 to 60 minutes; for biofilm kill (biocide concentration required to kill 50% of bacteria that grew in the biofilm): biofilm on vascular catheter, FIG. 15B; for planktonic cell kill (biocide concentration required to kill 100% of bacteria present as planktonic cells): planktonic cells on vascular catheter, FIG. 15A
From the text: as §1, §2, §3
The experiment was repeated as described above, except that Staphylococcus epidermis (1×10^9 CFU/ml) was used to inoculate the serum.

[2] = tested on: methicillin resistant Staphylococcus aureus (MRSA); assay: as above; assay type: cell-based; conditions: biofilm on vascular catheter, 5 to 60 minutes, FIG. 14B
Burkholderia cepacia = assay: as above; assay type: cell-based; conditions: 5 to 60 minutes; for biofilm kill (biocide concentration required to kill 50% of bacteria that grew in the biofilm): biofilm on vascular catheter, FIG. 11B; for planktonic cell kill (biocide concentration required to kill 100% of bacteria present as planktonic cells): planktonic cells on vascular catheter, FIG. 11A
From the text: as §1, §2, §3
The experiment was repeated as described above, except that Burkholderia cepacia (1×10^9 CFU/ml) was used to inoculate the serum.

Pseudomonas aeruginosa = assay: as above; assay type: cell-based; conditions: 5 to 60 minutes; for biofilm kill (biocide concentration required to kill 50% of bacteria that grew in the biofilm): biofilm on vascular catheter, FIG. 16B; for planktonic cell kill (biocide concentration required to kill 100% of bacteria present as planktonic cells): planktonic cells on vascular catheter, FIG. 16A
From the text: as §1, §2, §3
The experiment was repeated as described above, except that Pseudomonas aeruginosa (1×10^9 CFU/ml) was used to inoculate the serum.

Escherichia coli = assay: as above; assay type: cell-based; conditions: biofilm on vascular catheter, over all time periods (5 to 60 minutes), FIG. 12B
Enterococcus faecalis = assay: as above; assay type: cell-based; conditions: at 5 minutes of treatment; phase (planktonic or biofilm) not specified, FIGS. 13A-B
MRSA [3] = assay: Effect of albumin coating on colonization of MRSA in endotracheal tube model; assay type: cell-based, Staphylococcus aureus
From the text: (§4) A system as shown in FIG. 7 was used in this study. Artificial saliva was placed in a sealed bottle as the second fluid source 609. The first fluid source was provided by an oxygen tank used to saturate the artificial saliva with oxygen. A pump 631 was used to deliver the saliva to an endotracheal tube 3 positioned in the sampling apparatus 1. Each endotracheal tube was pretreated by coating the tube with undiluted bovine serum albumin, except for the untreated tube used as a control.
Initially, only the second fluid source, saliva inoculated with MRSA (1×10^9 CFU/ml), was used to contaminate the endotracheal tube. The inoculated fluid continuously flowed through IV tubing directly through the endotracheal tube for 60 minutes to form a biofilm on the tube. Fluid flow was then stopped and the tubing was then reconfigured as shown in FIG. 7 so that oxygen could be introduced. In these test runs, 100 mg/L mucin was added to the saliva. The fluid mixture continuously flowed through the catheter for 48 hours before fluid flow was discontinued to determine the effect of albumin on the colonization of MRSA on the endotracheal tube. […] The segments were transferred to test tubes containing one ml saline and the adherent cells were dislodges by sonication in an aquasonic device, vortexed for about one minute, and then counted on Tropic soya Agar. […]

MRSA [4] = assay: Mucin in controlling colonization of MRSA in endotracheal tube model; assay type: cell-based, Staphylococcus aureus; conditions: for log10 reduction of colonized MRSA: 48 hours flow, endotracheal tube
From the text: as §4, with “1.” for “1. Each endotracheal tube was pretreated by coating the tube with undiluted bovine serum albumin, except for the untreated tube used as a control.”
Initially, only the second fluid source, saliva inoculated with MRSA (1×10^9 CFU/ml), was used to contaminate the endotracheal tube. The inoculated fluid continuously flowed through IV tubing directly through the endotracheal tube for 60 minutes to form a biofilm on the tube. Fluid flow was then stopped and the tubing was then reconfigured as shown in FIG. 7 so that oxygen could be introduced. In these test runs, 100 mg/L mucin was added to the saliva. The fluid mixture continuously flowed through the catheter for 48 hours before fluid flow was discontinued to determine the effect of mucin on the bacterial resistance of the biofilm formed on the endotracheal tube. In all, four runs were completed at 0 mg/L mucin (control), 100 mg/L mucin, 500 mg/L mucin and 1000 mg/L mucin. After each run, the endotracheal tube was cut aseptically into one cm segments. The segments were transferred to test tubes containing one ml saline and the adherent cells were dislodges by sonication in an aquasonic device, vortexed for about one minute, and then counted on Tropic soya Agar.
The results of this study are shown in FIG. 18, which depicts the number of MRSA colony forming units per unit of surface area (CFU/cm^2) on the tube for each mucin concentration. […] The log10 reduction of colonized MRSA was 0.5, 3 (P=0.0001) and 3.5 (P=0.0001) at 100, 500 and 1000 mg/L of mucin, respectively. […] This pathogen plays a significant role in the onset of […] associated pneumonia by causing sustained tracheal colonization.

Compound | planktonic cell kill (biocide concentration required to kill 100% of bacteria present as planktonic cells) (Acinetobacter baumanii) | biofilm kill (biocide concentration required to kill 50% of bacteria that grew in the biofilm) [1] | planktonic cell kill (biocide concentration required to kill 100% of bacteria present as planktonic cells) [1] | biofilm kill (biocide concentration required to kill 50% of bacteria that grew in the biofilm) (Staphylococcus epidermis) | planktonic cell kill (biocide concentration required to kill 100% of bacteria present as planktonic cells) (Staphylococcus epidermis) | biofilm kill (biocide concentration required to kill 50% of bacteria that grew in the biofilm) [2] | biofilm kill (biocide concentration required to kill 50% of bacteria that grew in the biofilm) (Burkholderia cepacia) | planktonic cell kill (biocide concentration required to kill 100% of bacteria present as planktonic cells) (Burkholderia cepacia) | biofilm kill (biocide concentration required to kill 50% of bacteria that grew in the biofilm) (Pseudomonas aeruginosa) | planktonic cell kill (biocide concentration required to kill 100% of bacteria present as planktonic cells) (Pseudomonas aeruginosa) | biofilm kill (biocide concentration required to kill 50% of bacteria that grew in the biofilm) (Escherichia coli) | effectiveness as compared to the other biocides (Enterococcus faecalis) | MRSA colonization of endotracheal tubes (in words) (MRSA [3]; albumin coating of endotracheal tube, FIG. 19) | log10 increase of colonized cells (MRSA [3]; whole tube coating with albumin, 100 mg/L mucin in saliva, 48 hours flow, versus uncoated tube, P<0.0001) | log10 reduction of colonized MRSA (MRSA [4]; 100 mg/L of mucin in oxygen-saturated artificial saliva) | log10 reduction of colonized MRSA (MRSA [4]; 500 mg/L of mucin in oxygen-saturated artificial saliva, P=0.0001) | log10 reduction of colonized MRSA (MRSA [4]; 1000 mg/L of mucin in oxygen-saturated artificial saliva, P=0.0001) | colonization of MRSA on endotracheal tubes (in words) (MRSA [4]; mucin 100-1000 mg/L in artificial saliva, in vitro, FIG. 18)
O=CCCCC=O [GLT, gluteraldehyde] | most effective | nearly identical effect | somewhat more effective in killing planktonic cells as compared to SHC or PAA and considerably more effective than hydrogen peroxide | least effective | performed similarly in planktonic cell kill and outperformed hydrogen peroxide | PAA>GLT>hydrogen peroxide>SHC | nearly identical effect | performed comparably and were more effective than hydrogen peroxide | PAA>SHC>GLT>hydrogen peroxide | performed comparably and were more effective than hydrogen peroxide and SHC | least effective | – | – | – | – | – | – | –
OCl [SHC, sodium hypochlorite] | – | nearly identical effect | GLT was somewhat more effective in killing planktonic cells as compared to SHC or PAA | performed comparably | performed similarly in planktonic cell kill and outperformed hydrogen peroxide | PAA>GLT>hydrogen peroxide>SHC | nearly identical effect | performed comparably and were more effective than hydrogen peroxide | PAA>SHC>GLT>hydrogen peroxide | PAA and GLT performed comparably and were more effective than hydrogen peroxide and SHC | – | – | – | – | – | – | – | –
OO [hydrogen peroxide] | – | nearly identical effect | GLT was somewhat more effective in killing planktonic cells as compared to SHC or PAA and considerably more effective than hydrogen peroxide | performed comparably | SHC, PAA and GLT performed similarly in planktonic cell kill and outperformed hydrogen peroxide | PAA>GLT>hydrogen peroxide>SHC | nearly identical effect | SHC, PAA and GLT performed comparably and were more effective than hydrogen peroxide | PAA>SHC>GLT>hydrogen peroxide | PAA and GLT performed comparably and were more effective than hydrogen peroxide and SHC | – | relatively uneffective | – | – | – | – | – | –
bovine serum albumin | – | – | – | – | – | – | – | – | – | – | – | – | increased significantly | 2.4 log10 | – | – | – | –
mucin | – | – | – | – | – | – | – | – | – | – | – | – | – | – | 0.5 log10 | 3 log10 | 3.5 log10 | effective in decreasing the colonization of MRSA on endotracheal tubes

Source: patent publication US20080076147A1, “BIOFILM SAMPLING DEVICE” (BOARD OF TRUSTEES OF SOUTHERN ILLINOIS UNIVERSITY, priority 2006, published 2008)
